Data from BindingDB's records for PubMed 33764065 (Niddk, 2021).

Columns and labels:
[1] = Binding affinity to bovine brain membrane BzR assessed as inhibition constant
[2] = Inhibition of human non pancreatic secretory phospholipase A2 incubated for 30 mins by plate reader analysis

| Ki [1] | IC50 [2] | SMILES |
| --- | --- | --- |
| 0.117 µM |  | O=C(NCc1ccccc1)C(=O)c1c[nH]c2ccc([N+](=O)[O-])cc12 [N-benzyl-2-(5-nitro-1H-indol-3-yl)-2-oxoacetamide] |
|  | 13.6 µM | COc1ccc2c(c1)c(CC(=O)O)c(C)n2Cc1ccccc1 [1-BENZYL-5-METHOXY-2-METHYL-1H-INDOL-3-YL)-ACETIC ACID] |
